# Laboratory results as given in ChEMBL document CHEMBL3817789 (2016).
# Key:
# Assay type in all cases: functional
# [1] = test system: Staphylococcus aureus; assay: Antibacterial activity against methicillin-sensitive Staphylococcus aureus isolate SDS15016 after 24 hrs by broth microdilution method; conditions: isolate SDS15016, 24 h
# [2] = test system: Candida albicans; assay: Antifungal activity against clinical isolates of Candida albicans SC5314 after 48 hrs by broth microdilution method; conditions: SC5314, 48 h
# [3] = test system: Staphylococcus aureus; assay: Antibacterial activity against methicillin-resistant Staphylococcus aureus isolate SDSM1503 after 24 hrs by broth microdilution method; conditions: isolate SDSM1503, 24 h
structure (smiles),measurement,setting,value
Oc1cc2ccc1Oc1cc(ccc1O)CCc1ccc(c(O)c1)-c1c(O)cccc1CC2,MIC,[1],2 µg/mL
same,MIC80,[2],> 64 µg/mL
same,MIC,[3],4 µg/mL
Oc1cc2ccc1-c1c(ccc(Br)c1O)CCc1ccc(cc1)Oc1cc(cc(Br)c1O)CC2,MIC,[1],8 µg/mL
same,MIC80,[2],> 64 µg/mL
same,MIC,[3],16 µg/mL
Oc1ccc2cc1Oc1ccc(cc1)CCc1cccc(O)c1-c1ccc(c(Br)c1O)CC2,MIC,[1],2 µg/mL
same,MIC80,[2],> 64 µg/mL
same,MIC,[3],8 µg/mL
COc1cccc2c1-c1ccc(cc1O)CCc1ccc(O)c(c1)Oc1ccc(cc1)CC2,MIC,[1],2 µg/mL
same,MIC80,[2],> 64 µg/mL
same,MIC,[3],4 µg/mL
Oc1ccc2cc1Oc1ccc(cc1)CCc1c(Br)ccc(O)c1-c1ccc(c(Br)c1O)CC2,MIC,[1],2 µg/mL
same,MIC80,[2],8 µg/mL
same,MIC,[3],4 µg/mL
Oc1ccc2cc1Oc1ccc(cc1)CCc1cccc(O)c1-c1cc(Br)c(cc1O)CC2,MIC,[1],2 µg/mL
same,MIC80,[2],> 64 µg/mL
same,MIC,[3],4 µg/mL
Oc1cc2ccc1-c1c(O)cccc1CCc1ccc(cc1)Oc1cc(cc(O)c1O)CC2,MIC,[1],2 µg/mL
same,MIC80,[2],> 64 µg/mL
same,MIC,[3],8 µg/mL
Oc1ccc2cc1Oc1ccc(cc1)CCc1ccc(Br)c(O)c1-c1ccc(c(Br)c1O)CC2,MIC,[1],4 µg/mL
same,MIC80,[2],> 64 µg/mL
same,MIC,[3],16 µg/mL
Oc1ccc2cc1Oc1ccc(cc1)CCc1ccc(Br)c(O)c1-c1cc(Br)c(cc1O)CC2,MIC,[1],2 µg/mL
same,MIC80,[2],> 64 µg/mL
same,MIC,[3],4 µg/mL
COc1cc2ccc1-c1c(O)cccc1CCc1ccc(cc1)Oc1cc(ccc1O)CC2,MIC,[1],2 µg/mL
same,MIC80,[2],> 64 µg/mL
same,MIC,[3],8 µg/mL
Oc1cc2ccc1Oc1cc(cc(O)c1O)CCc1ccc(c(O)c1)-c1c(O)cccc1CC2,MIC,[1],8 µg/mL
same,MIC80,[2],> 64 µg/mL
same,MIC,[3],16 µg/mL
Oc1ccc2cc1Oc1ccc(cc1)CCc1c(Br)ccc(O)c1-c1cc(Br)c(cc1O)CC2,MIC,[1],2 µg/mL
same,MIC80,[2],8 µg/mL
same,MIC,[3],4 µg/mL
Cc1onc(-c2ccccc2)c1C(=O)N[C@@H]1C(=O)N2[C@@H]1SC(C)(C)[C@@H]2C(=O)[O-].[Na+],MIC,[1],8 µg/mL
same,MIC,[3],> 128 µg/mL
CO/N=C(\C(=O)N[C@@H]1C(=O)N2C(C(=O)O)=C(COC(C)=O)CS[C@H]12)c1csc(N)n1 [CEFOTAXIME],MIC,[1],4 µg/mL
same,MIC,[3],> 128 µg/mL
CC(C)(O/N=C(\C(=O)N[C@@H]1C(=O)N2C(C(=O)[O-])=C(C[n+]3ccccc3)CS[C@H]12)c1csc(N)n1)C(=O)O [CEFTAZIDIME],MIC,[1],4 µg/mL
same,MIC,[3],> 128 µg/mL
Cc1onc(-c2ccccc2Cl)c1C(=O)N[C@@H]1C(=O)N2[C@@H]1SC(C)(C)[C@@H]2C(=O)O [CLOXACILLIN],MIC,[1],0.5 µg/mL
same,MIC,[3],> 128 µg/mL
OC(Cn1cncn1)(Cn1cncn1)c1ccc(F)cc1F [FLUCONAZOLE],MIC80,[2],2 µg/mL
